The results in this text go back to patent US8394823B2, “Triazolopyridine compounds useful as DGAT1 inhibitors” (Bristol-Myers Squibb Company, priority 2008, dated 2013).

In this assay the target is T1, recombinant human DGAT1 (Homo sapiens, UniProt O75907).
T1 construct: made in house; host or cells: Sf9 insect cells (baculovirus)
T1 sequence (O75907 1-488): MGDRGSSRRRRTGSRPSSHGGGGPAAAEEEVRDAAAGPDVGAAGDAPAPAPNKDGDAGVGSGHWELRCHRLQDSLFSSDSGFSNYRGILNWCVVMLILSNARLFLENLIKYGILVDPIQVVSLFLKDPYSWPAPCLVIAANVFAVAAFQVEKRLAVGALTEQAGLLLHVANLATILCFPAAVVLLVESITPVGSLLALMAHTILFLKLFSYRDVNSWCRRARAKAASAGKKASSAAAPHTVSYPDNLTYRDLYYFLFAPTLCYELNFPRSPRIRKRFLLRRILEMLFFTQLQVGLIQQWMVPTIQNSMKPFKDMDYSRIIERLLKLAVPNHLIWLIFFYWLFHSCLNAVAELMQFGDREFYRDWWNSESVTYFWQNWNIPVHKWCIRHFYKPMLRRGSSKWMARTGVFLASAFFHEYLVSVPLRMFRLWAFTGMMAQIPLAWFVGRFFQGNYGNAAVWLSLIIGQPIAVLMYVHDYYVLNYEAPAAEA
Kind of assay: DGAT1 enzyme assay. The conditions noted are these: membranes from Sf9 insect cells expressing recombinant human DGAT1; 25 μM 2-monooleoyl-glycerol, 25 μM [3H]-stearoyl-CoA, pH 7.4, 30 min, 25° C., SPA. Type of assay: biochemical. The method, then:
DGAT1 enzyme assays were conducted using membranes isolated from Sf9 insect cells expressing the recombinant human DGAT1 cDNA. The assays were conducted in 384-well plates with total volume of 25 μl at 25° C. In each assay, 300 ng of recombinant human DGAT1 membrane was incubated with 25 μM of 2-monooleoyl-glycerol and 25 μM of [^3H]-stearoyl-CoA in 100 mM potassium phosphate (pH 7.4) for 30 min with various concentrations of compounds delivered in DMSO. The assay was terminated by the addition of 30 μl of Stopping Solution [50 mM HEPES, 5 mg/ml Yittrium Oxide (YOX) Polylysine SPA beads, 3.33 mg/ml Fraction V BSA, 200 μM Mercuric chloride]. The signal was measured using LEADSEEKER^SM for 5 minutes. To calculate the degree of inhibition, the zero level of enzyme activity (blank) was defined by the above assay using Sf9 cell membrane uninfected with baculovirus and the 100% level of DGAT1 enzyme activity was defined by human DGAT1 assay with the vehicle DMSO. The IC50 values of inhibitors were determined by Excel-fit.
By IC50 is commonly meant the concentration that gives 50% inhibition. With `CC(C)[C@H](Cc1nnc2cc(-c3ccc(Nc4nc5ccc(Cl)cc5s4)cc3)ccn12)C(=O)O` [Example 1, (S)-2-((7-(4-(6-Chlorobenzo[d]thiazol-2-ylamino)phenyl)-[1,2,4]triazolo[4,3-a]pyridin-3-yl)methyl)-3-methylbutanoic acid], the IC50 was 0.01 µM. The figure for `COC(=O)[C@@H](Cc1nnc2cc(-c3ccc(Nc4nc5ccc(Cl)cc5s4)cc3)ccn12)C(C)C` [Example 1F, (S)-Methyl 2-((7-(4-(6-chlorobenzo[d]thiazol-2-ylamino)phenyl)-[1,2,4]triazolo[4,3-a]pyridin-3-yl)methyl)-3-methylbutanoate] is 7.2 µM; for `CC(C)[C@@H](Cc1nnc2cc(-c3ccc(Nc4nc5ccc(Cl)cc5s4)cc3)ccn12)C(=O)O` [Example 2, (R)-2-((7-(4-(6-Chlorobenzo[d]thiazol-2-ylamino)phenyl)-[1,2,4]triazolo[4,3-a]pyridin-3-yl)methyl)-3-methylbutanoic acid] it is 0.16 µM; for `COC(=O)[C@H](Cc1nnc2cc(-c3ccc(Nc4nc5ccc(Cl)cc5s4)cc3)ccn12)C(C)C` [Example 2B, (R)-Methyl 2-((7-(4-(6-chlorobenzo[d]thiazol-2-ylamino)phenyl)-[1,2,4]triazolo[4,3-a]pyridin-3-yl)methyl)-3-methylbutanoate] it is 15 µM.

Take `CC(C)C[C@H](Cc1nnc2cc(-c3ccc(Nc4nc5ccc(Cl)cc5s4)cc3)ccn12)C(=O)O` [Example 3, (R)-2-((7-(4-(6-Chlorobenzo[d]thiazol-2-ylamino)phenyl)-[1,2,4]triazolo[4,3-a]pyridin-3-yl)methyl)-4-methylpentanoic acid]: the 50% inhibitory concentration (IC50) is 0.32 µM. The figure for `COC(=O)[C@@H](Cc1nnc2cc(-c3ccc(Nc4nc5ccc(Cl)cc5s4)cc3)ccn12)CC(C)C` [Example 3B, (R)-Methyl 2-((7-(4-(6-chlorobenzo[d]thiazol-2-ylamino)phenyl)-[1,2,4]triazolo[4,3-a]pyridin-3-yl)methyl)-4-methylpentanoate] is 25 µM; for `CC(C)C[C@@H](Cc1nnc2cc(-c3ccc(Nc4nc5ccc(Cl)cc5s4)cc3)ccn12)C(=O)O` [Example 4, (S)-2-((7-(4-(6-Chlorobenzo[d]thiazol-2-ylamino)phenyl)-[1,2,4]triazolo[4,3-a]pyridin-3-yl)methyl)-4-methylpentanoic acid] it is 2.8 µM. The figure for `COC(=O)[C@H](Cc1nnc2cc(-c3ccc(Nc4nc5ccc(Cl)cc5s4)cc3)ccn12)CC(C)C` [Example 4B, (S)-Methyl 2-((7-(4-(6-chlorobenzo[d]thiazol-2-ylamino)phenyl)-[1,2,4]triazolo[4,3-a]pyridin-3-yl)methyl)-4-methylpentanoate] is 50 µM; for `CCCC[C@H](Cc1nnc2cc(-c3ccc(Nc4nc5ccc(Cl)cc5s4)cc3)ccn12)C(=O)O` [Example 5, (R)-2-((7-(4-(6-Chlorobenzo[d]thiazol-2-ylamino)phenyl)-[1,2,4]triazolo[4,3-a]pyridin-3-yl)methyl)hexanoic acid] it is 0.2 µM; for `O=C(O)[C@@H](Cc1nnc2cc(-c3ccc(Nc4nc5ccc(Cl)cc5s4)cc3)ccn12)CC1CCCCC1` [Example 6, (R)-3-(7-(4-(6-Chlorobenzo[d]thiazol-2-ylamino)phenyl)-[1,2,4]triazolo[4,3-a]pyridin-3-yl)-2-(cyclohexylmethyl)propanoic acid] it is 3.6 µM. As to `O=C(O)[C@@H](Cc1nnc2cc(-c3ccc(Nc4nc5ccc(Cl)cc5s4)cc3)ccn12)C1CCCCC1` [Example 7, (S)-3-(7-(4-(6-Chlorobenzo[d]thiazol-2-ylamino)phenyl)-[1,2,4]triazolo[4,3-a]pyridin-3-yl)-2-cyclohexylpropanoic acid], the IC50 came to 2.8 µM. For the molecule `O=C(O)CCc1nnc2cc(-c3ccc(Nc4nc5ccc(Cl)cc5s4)cc3)ccn12` [Example 8, 3-(7-(4-(6-Chlorobenzo[d]thiazol-2-ylamino)phenyl)-[1,2,4]triazolo[4,3-a]pyridin-3-yl)propanoic acid], the IC50 worked out at 0.49 µM.
